Experimental findings from patent EP0330283A1, “Novel 5,6-diphenyl-1,2-dihydro-3H-pyrrolo[1,2-a]pyrrole-1-carboxylic acid derivatives” (HISAMITSU PHARMACEUTICAL CO., INC., priority 1988, dated 1989) are described below.

The subject of data set [1] is carrageenin-induced paw edema. Put plainly: Inhibitory actions on carrageenin-induced paw edema in rats. The data set is classed as in vivo. The note with it: Rattus norvegicus, po, 60 min before carrageenin, male Wistar rats, 3 hours after induction, vs control group, read-out: Inhibition rate; for inhibition in vivo at 30 mg/kg: 30 mg/kg orally; for inhibition in vivo at 15 mg/kg: 15 mg/kg orally. Here is the method:
Using, as test animals, male rats of Wistar strain each weighing approximately 150g, 0.1 ml of 1% x-carrageenin was subcutaneously injected into the paw of each rat to induce the reaction. Since then, the volume of paw edema was measured with the lapse of time. Each compound indicated in the following Table was orally administered to the rats 60 minutes before the induction of the reaction. As shown in the following Table, the results were expressed in terms of inhibition rate in comparison with those in control group 3 hours after the induction of the reaction.

For a further data set, the system named is collagen aggregation. Put plainly: Inhibitory actions on blood platelet aggregation induced by collagen (Born's nephelometry, platelet rich plasma). The data set is classed as cell-based. The settings on record: Oryctolagus cuniculus, collagen (10µg/ml), rabbit PRP, read-out: Inhibiting rate; for inhibition at 10 µM: final concentration 10 μM; for inhibition at 30 µM: final concentration 30 μM. Here is the method:
(§1) Nine (9) ml of blood were drawn from the concha artery of a rabbit into a syringe containing therein 1 ml of a 3.2% solution of sodium citrate, after which the whole mass was centrifuged at 1100 rpm for 10 minutes to collect platelet rich plasma (PRP). The blood from which the PRP had been collected was again centrifuged at 3000 rpm for 5 minutes to collect platelet poor plasma (PPP). The PRP was adjusted to have 500,000/µl of platelets (thrombocytes) by the use of the PPP.
(§2) Four hundred and forty-five (445)µl of the thus adjusted PRP were introduced into a cuvette, warmed to 37° C for 5 minutes, incorporated with 5µl of a solution of each of the test compounds, further warmed for two minutes and then incorporated with 50µl of collagen (10µg/ml) or 50µl of arachidonic acid (350µM) thereby to induce platelet aggregation. The platelet aggregation was measured in accordance with the Born's nephelometry by the use of an Aggregometer produced by Sysmex Co.

Data set [2] deals with arachidonic acid aggregation. Put plainly: Inhibitory actions on blood platelet aggregation induced by arachidonic acid (Born's nephelometry, platelet rich plasma). The data set is classed as cell-based. The note with it: arachidonic acid (350µM), rabbit PRP; for inhibition at 3 µM / inhibition at 10 µM / inhibition at 30 µM: Oryctolagus cuniculus, Platelet, read-out: Inhibiting rate. How it is done:
as §1, §2

The test system of data set [3] is writhing induced by acetic acid. Put plainly: Inhibitory actions on the writhing induced by acetic acid in mice. The data set is classed as in vivo. The note with it: 30 mg/kg orally, 30 min before 0.6% acetic acid; male ddY mice; number of writhing vs control group. How it is done:
As test animals, there were provided groups consisting of 7-9 male ddY strain mice weighing 20-24g. Each of the compounds indicated in the following table was orally administered to the mice of one group. Thirty minutes later, 0.6% acetic acid was abdominally administered at a dose of 0.1ml/10g. Counting of the number of writhing was started 5 minutes later than the administration of the acetic acid and continued for 10 minutes. The inhibition rates were determined by comparing the number of writhing of the test group with that of the control group and were shown in the following Table.
Background: Writhing tests count abdominal constrictions after an irritant is injected.

The next data set concerns gastric mucous damage. Put plainly: Gastric mucous damage test in rats. The data set is classed as in vivo. The settings on record: 10 mg/kg orally after fasting for 18 hours; male Wistar rats; stomachs observed 3.5 hours later. How it is done:
Using, as test animals, male rats of Wistar strain each weighing approximately 160g, the compounds of Examples 6 and 40 as well as indomethacin were each orally administered to the rats at the dose indicated in the following Table after their fasting for 18 hours. Three and a half (3.5) hours later, the rats were dissected to remove the stomachs therefrom. 10ml of a 70% ethanol were injected into the stomachs to fix them, and the stomachs were cut and washed with water and then visually observed to find whether ulcers were formed therein.

Consider `O=C(NC1CCCCC1)C1CCn2c1cc(-c1ccc(Cl)cc1)c2-c1ccc(Cl)cc1` (racemic) [Example 54], for which, in data set [1], the inhibition in vivo at 30 mg/kg was determined as 40.2%. Further, the figures for the inhibition at 10 µM (with collagen aggregation; in data set [2] (final concentration 10 µM)) were 79.5% and 93.5%, respectively. In data set [2] (final concentration 3 µM), the inhibition at 3 µM turned out to be 93.5%. Moreover, in data set [2] (final concentration 30 µM), the inhibition at 30 µM came out at 91.9%.
Regarding `CC(C)OC(=O)C1CCn2c(-c3ccc(F)cc3)c(-c3ccc(F)cc3)c(C(=O)O)c21` (racemic) [Example 25], in data set [3], the Inhibition rate is 49.1%. Further, in data set [1], the inhibition in vivo at 30 mg/kg is 30.1%.
Take `O=C(Nc1ccccc1)C1CCn2c1cc(-c1ccc(Cl)cc1)c2-c1ccc(Cl)cc1` (racemic) [Example 7, N-phenyl-5,6-bis(p-chlorophenyl)-1,2-dihydro-3H-pyrrolo[1,2-a]pyrrole-1-carboxylic acid amide]: the inhibition in vivo at 30 mg/kg in data set [1] came to 37.4%. In addition, the inhibition at 10 µM with collagen aggregation was 78%.
`O=C(O)C1CCn2c1cc(-c1ccc(F)cc1)c2-c1ccc(F)cc1` (racemic) [Example 38]: in data set [1], the inhibition in vivo at 30 mg/kg worked out at 47.9%.
With `O=C(NCCCN1CCOCC1)C1CCn2c1cc(-c1ccc(Cl)cc1)c2-c1ccc(Cl)cc1` (racemic) [Example 57], in data set [1], the inhibition in vivo at 30 mg/kg amounted to 31.9%. Further, the inhibition at 10 µM in the data set with collagen aggregation is 89.6%.
For the compound `O=C(Nc1ccc(Cl)cc1)C1CCn2c1cc(-c1ccc(Cl)cc1)c2-c1ccc(Cl)cc1` (racemic) [Example 41], in data set [2] (final concentration 3 µM), the inhibition at 3 µM was 83.4%. The inhibition at 10 µM in data set [2] (final concentration 10 µM) was found to be 88.7%. Besides, the inhibition at 30 µM in data set [2] (final concentration 30 µM) was found to be 89.4%.
`COc1ccc(-c2c(-c3ccc(Cl)cc3)cc3n2CCC3C(=O)O)cc1` (racemic) [Example 40]: the Inhibition rate in data set [3] was determined as 87.3%. Besides, in data set [1], the inhibition in vivo at 30 mg/kg came out at 48.2%. Further, the inhibition at 30 µM in the data set on collagen aggregation came to 63.8%.
Consider `O=C(O)C1CCn2c1cc(-c1ccc(Cl)cc1)c2-c1ccc(Cl)cc1` (stereo not drawn) [Example 6, 5,6-bis(p-chlorophenyl)-1,2-dihydro-3H-pyrrolo[1,2-a]pyrrole-1-carboxylic acid], for which the Inhibition rate in data set [3] was determined as 81.3%. In data set [1], the inhibition in vivo at 30 mg/kg came out at 52.3%.
Consider `O=C(NCc1ccccc1)C1CCn2c1cc(-c1ccc(Cl)cc1)c2-c1ccc(Cl)cc1` (racemic) [Example 48], for which the inhibition at 3 µM in data set [2] (final concentration 3 µM) turned out to be 14.3%. For the same compound, the inhibition at 10 µM in data set [2] (final concentration 10 µM) was found to be 86.5%. Also, in data set [2] (final concentration 30 µM), the inhibition at 30 µM was 91%.
For `O=C(C1CCn2c1cc(-c1ccc(Cl)cc1)c2-c1ccc(Cl)cc1)N1CCOCC1` (racemic) [Example 61], in data set [2] (final concentration 3 µM), the inhibition at 3 µM was found to be 10.1%. In addition, the inhibition at 10 µM in data set [2] (final concentration 10 µM) stood at 89.4%. In addition, the inhibition at 30 µM in data set [2] (final concentration 30 µM) was 91.4%.
Consider `COc1ccc(-c2cc3n(c2-c2ccc(OC)cc2)CCC3C(=O)O)cc1` (racemic) [Example 39], for which the inhibition in vivo at 15 mg/kg in data set [1] was found to be 34.7%. Besides, in the data set with collagen aggregation, the inhibition at 30 µM came out at 61.7%.
`O=C(O)c1c(-c2ccc(Cl)cc2)c(-c2ccc(Cl)cc2)n2c1C(C(=O)O)CC2` (stereo not drawn) [Example 3, 5,6-bis(p-chlorophenyl)-1,2-dihydro-3H-pyrrolo[1,2-a]-pyrrole-1,7-dicarboxylic acid] registered an Inhibition rate in data set [3] of 71.5%. In data set [1], the inhibition in vivo at 30 mg/kg is 44.7%.
Turning to `Cc1ccc(-c2cc3n(c2-c2ccc(C)cc2)CCC3C(=O)O)cc1` (racemic) [Example 37], the Inhibition rate in data set [3] worked out at 45.4%. Besides, the inhibition in vivo at 15 mg/kg in data set [1] was found to be 27.8%. Further, the inhibition at 30 µM in the data set with collagen aggregation turned out to be 53.7%.
With `O=C(O)c1c(-c2ccc(F)cc2)c(-c2ccc(F)cc2)n2c1C(C(=O)O)CC2` (racemic) [Example 17], the Inhibition rate in data set [3] worked out at 78.4%. The inhibition in vivo at 30 mg/kg in data set [1] is 42.9%.
`O=C(Nc1ccccn1)C1CCn2c1cc(-c1ccc(Cl)cc1)c2-c1ccc(Cl)cc1` (racemic) [Example 46]: the inhibition in vivo at 30 mg/kg in data set [1] came out at 39.4%. The inhibition at 10 µM in the data set on collagen aggregation was determined as 64%.
In data set [3], `CC(C)OC(=O)C1CCn2c(-c3ccc(Cl)cc3)c(-c3ccc(Cl)cc3)c(C(=O)O)c21` (racemic) [Example 4, 5,6-bis(p-chlorophenyl)-1,2-dihydro-3H-pyrrolo[1,2-a]pyrrole-1-isopropyl carboxylate ester-7-carboxylic acid] registered an Inhibition rate of 56.4%. In addition, the inhibition in vivo at 30 mg/kg in data set [1] was found to be 31.2%.
`CCCCNC(=O)C1CCn2c1cc(-c1ccc(Cl)cc1)c2-c1ccc(Cl)cc1` (racemic) [Example 8, N-bytyl-5,6-bis(p-chlorophenyl)-1,2-dihydro-3H-pyrrolo[1,2-a]pyrrole-1-carboxylic acid amide]: the results for the Inhibiting rate in data set [2] (final concentration 3 µM), in data set [2] (final concentration 10 µM) and in data set [2] (final concentration 30 µM) were 92.5%, 90.2% and 92.5%, respectively.
Consider `CN1CCN(NC(=O)C2CCn3c2cc(-c2ccc(Cl)cc2)c3-c2ccc(Cl)cc2)CC1` (racemic) [Example 59], for which, in data set [1], the inhibition in vivo at 30 mg/kg was determined as 30.5%. In the data set with collagen aggregation, the inhibition at 10 µM was found to be 83.4%.
`COc1ccc2c(c1)c(CC(=O)O)c(C)n2C(=O)c1ccc(Cl)cc1` [Indomethacin]: the Ulcer formation in the data set on gastric mucous damage was 7/7.
